# Reference: PubChem BioAssay (NCI)
#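 Five compound concentrations were applied to cells in 96-well plates for 48 hours; endpoints were derived by simple linear interpolation of the resulting dose-response curve. GI50: concentration for 50% inhibition of growth. TGI marks complete inhibition of growth.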
# Legend:
# Assay in all cases: inhibition of tumour cell growth, NCI panel, 48 h
# SF-268 CNS = system: SF-268 CNS
# HT29 colon = system: HT29 colon
# UACC-62 melanoma = system: UACC-62 melanoma
# CAKI-1 renal = system: CAKI-1 renal
# SN12C renal = system: SN12C renal
# COLO 205 colon = system: COLO 205 colon
# UO-31 renal = system: UO-31 renal
# SK-MEL-2 melanoma = system: SK-MEL-2 melanoma
# NCI-H460 lung = system: NCI-H460 lung
# MDA-MB-231 breast = system: MDA-MB-231 breast
SMILES,TGI (SF-268 CNS) [µM],TGI (HT29 colon) [µM],TGI (UACC-62 melanoma) [µM],TGI (CAKI-1 renal) [µM],TGI (SN12C renal) [µM],TGI (COLO 205 colon) [µM],TGI (UO-31 renal) [µM],TGI (SK-MEL-2 melanoma) [µM],TGI (NCI-H460 lung) [µM],GI50 (SF-268 CNS) [µM],GI50 (HT29 colon) [µM],GI50 (UACC-62 melanoma) [µM],GI50 (MDA-MB-231 breast) [µM],TGI (MDA-MB-231 breast) [µM],GI50 (SN12C renal) [µM],GI50 (COLO 205 colon) [µM],GI50 (UO-31 renal) [µM],GI50 (NCI-H460 lung) [µM],GI50 (CAKI-1 renal) [µM],GI50 (SK-MEL-2 melanoma) [µM]
CCCCCCCCCCCCCCCC(=O)OCC1OC(n2cc(F)c(=O)[nH]c2=O)C(N)C(O)C1O (configuration not stated),35.2,42.1,30,37.5,32.4,34,30.8,,,,,,,,,,,,,
O=C(c1ccc(Cl)cc1Cl)C1[C@H]2C(=O)N(c3ccc(Cc4ccc(N5C(=O)[C@@H]6ON(c7ccccc7)C(C(=O)c7ccc(Cl)cc7Cl)[C@@H]6C5=O)cc4)cc3)C(=O)[C@H]2ON1c1ccccc1 (some centres not stated),> 50,> 50,> 50,> 50,> 50,> 50,> 50,> 50,> 50,,,,,,,,,,,
OC1(C23CC4CC(CC(C4)C2)C3)CSCC1(O)C12CC3CC(CC(C3)C1)C2 (configuration not stated),> 100,> 100,> 100,> 100,> 100,> 100,> 100,> 100,,,,,,,,,,,,
CCOC(C[C@H](O[Si](C)(C)C(C)(C)C)[C@H]1COC(=S)S1)OCC,> 100,41.9,,,> 100,> 100,> 100,,> 100,,,,,,,,,,,
Cc1cc([N+](=O)[O-])c(NS(=O)(=O)c2cccc(C(=O)O)c2)cc1-c1cccnc1,> 100,> 100,> 100,,> 100,> 100,> 100,,> 100,> 100,> 100,> 100,> 100,> 100,> 100,> 100,> 100,> 100,,
CC(C)CCCC(C)[C@H]1CCC2[C@@H]3CCC4Cc5nc6c(nc5C[C@]4(C)C3CC[C@@]21C)CC1CC[C@@H]2C(CC[C@@]3(C)C2CC[C@@H]3C(C)CCCC(C)C)[C@@]1(C)C6 (some centres not stated),> 100,> 100,> 100,,> 100,> 100,> 100,> 100,> 100,,,,,> 100,,,,,,
Cc1ccccc1C1OC(=O)c2ccc3ccccc3c21 (configuration not stated),14.8,> 31.6,6.97,88.4,18.3,2.28,10.9,5.98,12.6,,,,,,,,,,,
O=C1NNC2(C(=O)N1)c1ccccc1-c1ccccc12,> 10,> 10,> 10,> 10,> 10,> 10,> 10,,> 10,,,,,> 10,,,,,,
CC(=O)[CH-]C(=O)c1ccccc1.CC(=O)[CH-]C(=O)c1ccccc1.CC[O-].CC[O-].[Hf+4],> 100,> 100,> 100,> 100,> 100,> 100,> 100,> 100,> 100,> 100,> 100,> 100,,,> 100,> 100,> 100,> 100,> 100,> 100
CCCCCCC[CH2][Sn]([CH2]CCCCCCC)([O]c1cccc2cccnc12)[O]c1cccc2cccnc12,10.7,3.94,3.9,8.41,4.32,3.41,5.42,3.14,10.7,2.68,2.04,1.82,,,1.96,1.86,2,3.12,2.54,1.61
OC(CCNC12CC3CC(CC(C3)C1)C2)c1ccccc1 (configuration not stated),> 100,> 100,> 100,> 100,> 100,> 100,> 100,> 100,> 100,,,,,,,,,,,
CSC1=C(N)C(=O)c2[nH]cc(CO)c2C1=N,0.873,0.498,0.314,,0.317,0.222,0.295,0.503,0.338,0.246,0.161,0.159,0.236,0.669,0.16,0.0755,0.154,0.154,,0.211
CN(C(=O)C12C3C4C1C1C2C3C41C(N)=O)C(C)(C)C (configuration not stated),> 100,> 100,> 100,> 100,> 100,> 100,> 100,,> 100,,,,,,,,,,,
COc1c(O)c2c3c(cc(C)cc3c1C(C)C)OC2,> 100,> 100,> 100,,> 100,> 100,> 100,> 100,> 100,,,,,,,,,,,
Cc1ccc2c(c1)-c1c3c(nn1-c1ccccc1)-c1ccccc1SC3O2 (configuration not stated),> 100,> 100,,,,> 100,> 100,> 100,> 100,,,,,,,,,,,
Nc1ncnc2c1N=C(c1ccc3c(c1)OCO3)CC(c1ccc([N+](=O)[O-])cc1)N2 (configuration not stated),> 100,> 100,> 100,> 100,> 100,> 100,> 100,,> 100,42,63,76.9,38.9,> 100,82.6,92,18.1,76.3,25.5,
NNC(=O)C1CCC(=O)N1S(=O)(=O)c1ccccc1 (configuration not stated),> 100,> 100,> 100,> 100,> 100,> 100,> 100,> 100,> 100,,,,,,,,,,,
CCOc1cc2c(C(=O)CC)c(O)ccc2o1,> 100,> 100,> 52.8,> 100,> 100,> 100,> 100,> 100,> 100,,,,,,,,,,,
c1cncc(C2N3CCCCC3[C@@H]3c4[nH]c5ccccc5c4CCN23)c1 (some centres not stated),> 100,> 100,> 100,> 100,> 100,,> 100,> 100,> 100,,,,,,,,,,,
